Tests used:
Assay type in all cases: in vivo
[1] = Potentiation of psychotropic drugs (Nembutal, Chlorpromazine, morphine) and antagonism of amphetamine
Description: (§1) D'autre part, il faut noter une potentialisation par les composés de formule (I) des psychotropes : Nembutal, Chlorpromazine, morphine, et un antagoniste de l'amphétamine. A titre d'exemple, le composé de l'exemple 3 potentialise l'effet hypnotique du Nembutal de + 146 %, celui de la Chlorpromazine de + 50 % et celui de la morphine de 40 %. Par contre, il antagonise à 70 % les effets de l'amphétamine.
as §1, with “morphine” for “morphine,”

rat vigile = experiment: Diuretic action in the conscious rat with i.p. isotonic sodium chloride load; conditions: mean increase of diuresis versus mean of controls
Method: (§2) L'action diurétique est mesurée sur le rat vigile traité par 25 ou 50 mg/kg de substance à tester prise par voie orale ou intrapéritonéale et recevant une injection I.P. de soluté isotonique de chlorure de sodium au début de l'essai. Les rats sont groupés par trois et les expériences sont répétées en croisant les lots de rats.
La diurèse est exprimée par le pourcentage de l'augmentation moyenne de la diurèse par rapport à la moyenne des témoins.
as §2, with “IP” for “I.P.”

souris Swiss = experiment: Acute toxicity (LD50) in Swiss mice
Method: Les toxicités aiguës ont été déterminées sur la souris Swiss.
Par exemple, pour le composé de l'exemple 3, la DL50 par voie IP est de 250 mg et per os de 225 mg.

souris = experiment: Sedative action: sedation index (hole-board exploration, hypothermia, mobility, agility)
Description: (§3) L'action sédative est mesurée par un indice de sédation. Cet indice de sédation tient compte du pourcentage, chez la souris, de la diminution de l'exploration de la planche à trous par rapport à des témoins, de l'hypothermie, de la mobilité, de l'agilité. Les résultats pour le composé de l'exemple 3, sont donnés au Tableau Il.
as §3, with “3” for “3,”, “II.” for “Il.”

## CN(C)n1c(=O)c2ccccc2n(C)c1=O [Exemple 3, diméthylamino-3 méthyl-1 (1 H, 3H) quinazolinedione-2,4]
[1]; with Chlorpromazine
  potentialise l'effet de la Chlorpromazine: 50%
[1]; with Nembutal
  potentialise l'effet hypnotique du Nembutal: 146%
[1]; with amphétamine
  antagonise les effets de l'amphétamine: 70%
[1]; with morphine
  potentialise l'effet de la morphine: 40%
Rat vigile; 25 mg/kg par voie IP
  Diurèse: 60%
Rat vigile; 25 mg/kg par voie orale
  Diurèse: 77%
Rat vigile; 50 mg/kg par voie IP
  Diurèse: 200%
Rat vigile; 50 mg/kg par voie orale
  Diurèse: 200%
Souris Swiss; par voie IP
  DL50: 250 mg
Souris Swiss; per os
  DL50: 225 mg
souris; 50 mg/kg per os
  Indice de sédation: 76
souris; 100 mg/kg per os
  Indice de sédation: 164
  Indice de sédation chimique: 179
souris; 100 mg/kg voie I.P.
  Indice de sédation: 236

Source: patent publication EP0035619B1, “Derivatives of 3-amino-(1H,3H)-2,4-quinazolin-diones” (BERRI-BALZAC Société dite:, priority 1980, dated 1981)
